Common to all, as to assay: radiometric filter-binding kinase assay
One assay addresses PHKG1 (human) (UniProt Q16816). Conditions: compound 10.0 µM.
The target in the next assay is RPS6KA3 KD1 KD2 (human) (UniProt P51812).
The next assay has as its target SYK (human) (UniProt P43405). The following applies: compound 10.0 µM.

RPS6KA3 KD1 KD2 (human), sequence (P51812 whole entry, looked up): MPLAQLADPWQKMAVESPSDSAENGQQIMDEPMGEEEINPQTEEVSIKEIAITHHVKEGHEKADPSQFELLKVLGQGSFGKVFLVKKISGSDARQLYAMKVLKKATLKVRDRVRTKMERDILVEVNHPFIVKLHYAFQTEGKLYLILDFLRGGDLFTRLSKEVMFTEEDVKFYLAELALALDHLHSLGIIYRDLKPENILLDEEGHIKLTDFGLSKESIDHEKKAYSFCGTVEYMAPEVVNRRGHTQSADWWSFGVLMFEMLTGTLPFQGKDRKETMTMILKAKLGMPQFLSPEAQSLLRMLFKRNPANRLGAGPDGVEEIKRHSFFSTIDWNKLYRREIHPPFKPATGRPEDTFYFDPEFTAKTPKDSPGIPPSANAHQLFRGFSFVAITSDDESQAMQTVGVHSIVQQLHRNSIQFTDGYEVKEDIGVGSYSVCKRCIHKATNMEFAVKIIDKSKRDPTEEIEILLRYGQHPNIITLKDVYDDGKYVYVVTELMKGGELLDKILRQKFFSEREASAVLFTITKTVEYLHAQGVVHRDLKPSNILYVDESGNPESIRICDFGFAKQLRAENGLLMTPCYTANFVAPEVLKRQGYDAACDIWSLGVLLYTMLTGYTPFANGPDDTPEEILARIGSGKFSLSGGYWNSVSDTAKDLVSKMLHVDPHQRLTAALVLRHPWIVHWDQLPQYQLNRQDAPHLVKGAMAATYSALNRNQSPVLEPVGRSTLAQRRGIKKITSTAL
PHKG1 (human), sequence (Q16816 whole entry, looked up): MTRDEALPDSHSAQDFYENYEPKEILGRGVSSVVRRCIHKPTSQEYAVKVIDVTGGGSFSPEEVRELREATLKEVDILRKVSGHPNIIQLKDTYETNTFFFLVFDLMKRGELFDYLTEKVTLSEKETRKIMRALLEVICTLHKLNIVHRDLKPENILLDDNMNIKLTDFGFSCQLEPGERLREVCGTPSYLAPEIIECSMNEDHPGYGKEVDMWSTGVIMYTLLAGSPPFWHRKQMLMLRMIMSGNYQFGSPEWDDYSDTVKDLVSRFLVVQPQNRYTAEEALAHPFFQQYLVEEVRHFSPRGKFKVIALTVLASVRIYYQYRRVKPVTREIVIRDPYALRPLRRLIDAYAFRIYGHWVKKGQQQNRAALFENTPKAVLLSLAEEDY

As a reminder, the residual activity is the share of the control activity or signal that is left under treatment. The low end stands for little activity left, the high end for much activity left. With `Cc1nc(N)sc1-c1csc(Nc2cccnc2)n1`, the residual activity amounted to 54% at PHKG1 (human), 50% on RPS6KA3 KD1 KD2 (human) (compound 10.0 µM), 10% on RPS6KA3 KD1 KD2 (human) (compound 100.0 µM) and 100% at SYK (human).
